According to US7863287B2, “Compositions of non-steroidal anti-inflammatory drugs, decongestants and anti-histamines” (Wyeth LLC, priority 2002, dated 2011):
Structures can show the parent of a compound that is named as a salt.

System: seasonal allergic rhinitis
Test: Multicenter, placebo-controlled, double-blind, randomized multiple-dose efficacy trial in seasonal allergic rhinitis
Format: in vivo, human
Excerpt: The study was a multicenter, outpatient, multiple-dose, placebo controlled, double-blind, double-dummy, parallel-group, randomized trial.
The study enrolled 1070 appropriately selected patients who were at least 12 years of age and included both males and females. […] Qualified subjects were required to undergo a 3-30 day run-in phase to establish that the patients had sufficiently severe allergy symptoms, during which time they reflectively assessed the severity of the following symptoms in the morning (upon waking) and in the evening (prior to bedtime): nasal congestion, sneezing, rhinorrhea, itchy nose/throat/palate; itchy/watery/red eyes and headache/facial pain/pressure/discomfort. The severity of each symptom was assessed using a 4-point categorical scale where 0=none (no symptom present), 1=mild (minimal awareness of symptom, symptom easily tolerated), 2=moderate (symptom present and bothersome, but tolerable) and 3=severe (symptom hard to tolerate; may cause interference with daily activities/sleeping). […] Patients were also assessed for allergy associated pain and were asked if they were in pain. […]

With `CN(C)CCC(c1ccc(Cl)cc1)c1ccccn1` (stereo not shown) [chlorpheniramine, chlorpheniramine maleate] the “relief of histamine-mediated symptoms, result in words” value was “more effective than the placebo”.
